Data: PubChem BioAssay (NCI)
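Test compounds were applied to cells in 96-well plates for 48 hours at 5 doses. At the TGI there is no net growth.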

How the values were obtained:
Test in all cases: growth of human tumour cells (NCI), 48 h
[1] = tested on: MDA-MB-231 breast
[2] = tested on: CAKI-1 renal
[3] = tested on: NCI/ADR-RES ovarian
[4] = tested on: SF-539 CNS
[5] = tested on: HOP-62 NSCLC
[6] = tested on: NCI-H522 lung
[7] = tested on: OVCAR-8 ovarian
[8] = tested on: A498 renal
[9] = tested on: SF-268 CNS
[10] = tested on: UO-31 renal
[11] = tested on: HT29 colon
[12] = tested on: MOLT-4 leukemia
[13] = tested on: ACHN renal
[14] = tested on: PC-3 prostate
[15] = tested on: MDA-MB-435
[16] = tested on: COLO 205 colon
[17] = tested on: NCI-H460 lung
[18] = tested on: A549 NSCLC
[19] = tested on: M14 melanoma
[20] = tested on: SK-MEL-5 melanoma
[21] = tested on: HCC-2998 colon
[22] = tested on: OVCAR-3 ovarian
[23] = tested on: HOP-92 NSCLC
[24] = tested on: MCF7 breast
[25] = tested on: OVCAR-4 ovarian
[26] = tested on: UACC-257 melanoma
[27] = tested on: CCRF-CEM leukemia
[28] = tested on: SN12C renal
[29] = tested on: T-47D breast
[30] = tested on: IGROV1 ovarian
[31] = tested on: UACC-62 melanoma
[32] = tested on: HL-60(TB) leukemia
[33] = tested on: TK-10 renal
[34] = tested on: SNB-75 CNS
[35] = tested on: DU-145 prostate
[36] = tested on: EKVX NSCLC
[37] = tested on: OVCAR-5 ovarian
[38] = tested on: RPMI-8226 leukemia
[39] = tested on: NCI-H23 lung
[40] = tested on: KM12 colon
[41] = tested on: SF-295 CNS
[42] = tested on: LOX IMVI melanoma
[43] = tested on: SNB-19 CNS
[44] = tested on: MALME-3M melanoma
[45] = tested on: HS 578T breast
[46] = tested on: HCT-15 colon
[47] = tested on: SR leukemia
[48] = tested on: SK-MEL-28 melanoma
[49] = tested on: NCI-H226 lung
[50] = tested on: 786-0 renal
[51] = tested on: U251 CNS
[52] = tested on: SK-OV-3 ovarian
[53] = tested on: MDA-N
[54] = tested on: RXF 393 renal
[55] = tested on: SW-620 colon
[56] = tested on: K-562 leukemia
[57] = tested on: HCT-116 colon
[58] = tested on: SK-MEL-2 melanoma
[59] = tested on: BT-549 breast

CN(COC(=O)c1ccccc1)c1nc(N(C)COC(=O)c2ccccc2)nc(N(C)COC(=O)c2ccccc2)n1
TGI [1]: 53.4 µM | TGI [2]: > 86.2 µM | TGI [3]: > 100 µM | TGI [4]: 38.9 µM | TGI [5]: 40.6 µM | TGI [6]: > 100 µM | TGI [7]: > 100 µM | TGI [8]: 40.8 µM | TGI [9]: > 88.1 µM | TGI [10]: > 100 µM | TGI [11]: > 100 µM | TGI [12]: > 100 µM | TGI [13]: 78.7 µM | TGI [14]: > 100 µM | TGI [15]: > 100 µM | TGI [16]: > 100 µM | TGI [17]: > 100 µM | TGI [18]: > 100 µM | TGI [19]: > 100 µM | TGI [20]: > 100 µM | TGI [21]: > 100 µM | TGI [22]: > 100 µM | TGI [23]: 63.1 µM | TGI [24]: > 100 µM | TGI [25]: > 100 µM | TGI [26]: > 100 µM | TGI [27]: > 100 µM | TGI [28]: > 100 µM | TGI [29]: > 100 µM | TGI [30]: > 100 µM | TGI [31]: > 100 µM | TGI [32]: > 100 µM | TGI [33]: 59.2 µM | TGI [34]: > 100 µM | TGI [35]: > 100 µM | TGI [36]: > 100 µM | TGI [37]: > 100 µM | TGI [38]: > 100 µM | TGI [39]: > 100 µM | TGI [40]: > 100 µM | TGI [41]: > 84.9 µM | TGI [42]: > 100 µM | TGI [43]: 51.7 µM | TGI [44]: > 100 µM | TGI [45]: > 100 µM | TGI [46]: > 100 µM | TGI [47]: > 100 µM | TGI [48]: > 100 µM | TGI [49]: > 100 µM | TGI [50]: 46.5 µM | TGI [51]: > 83.7 µM | TGI [52]: > 100 µM | TGI [53]: > 100 µM | TGI [54]: 26.2 µM | TGI [55]: > 100 µM | TGI [56]: > 100 µM | TGI [57]: > 100 µM

O=C(O)C1CC2(C1)CC(C(=O)O)C2 (stereo not given)
TGI [1]: > 100 µM | TGI [2]: > 100 µM | TGI [3]: > 100 µM | TGI [4]: > 100 µM | TGI [5]: > 100 µM | TGI [58]: > 100 µM | TGI [6]: > 100 µM | TGI [8]: > 100 µM | TGI [10]: > 100 µM | TGI [11]: > 100 µM | TGI [12]: > 100 µM | TGI [13]: > 100 µM | TGI [14]: > 100 µM | TGI [15]: > 100 µM | TGI [16]: > 100 µM | TGI [17]: > 100 µM | TGI [59]: > 100 µM | TGI [18]: > 100 µM | TGI [19]: > 100 µM | TGI [20]: > 100 µM | TGI [21]: > 100 µM | TGI [22]: > 100 µM | TGI [24]: > 100 µM | TGI [25]: > 100 µM | TGI [26]: > 100 µM | TGI [28]: > 100 µM | TGI [29]: > 100 µM | TGI [30]: > 100 µM | TGI [31]: > 100 µM | TGI [33]: > 100 µM | TGI [34]: > 100 µM | TGI [35]: > 100 µM | TGI [36]: > 100 µM | TGI [37]: > 100 µM | TGI [38]: > 100 µM | TGI [39]: > 100 µM | TGI [40]: > 100 µM | TGI [41]: > 100 µM | TGI [42]: > 100 µM | TGI [43]: > 100 µM | TGI [44]: > 100 µM | TGI [45]: > 100 µM | TGI [46]: > 100 µM | TGI [47]: > 100 µM | TGI [48]: > 100 µM | TGI [50]: > 100 µM | TGI [51]: > 100 µM | TGI [52]: > 100 µM | TGI [53]: > 100 µM | TGI [54]: > 100 µM | TGI [55]: > 100 µM | TGI [56]: > 100 µM | TGI [57]: > 100 µM
